Data published in US12686686B2 (priority 2020, dated 2026).
Read-outs that look alike come from different tables or passages of the source.

Key:
[1] = tested on: RWPE-1; experiment: Cytotoxic activity test (MTT) on normal human prostate cell RWPE-1; assay type: cell-based
Experimental: (§1) All prostate cancer cells were cultured with a RPMI-1640 medium containing 10% calf serum, 100 units of penicillin per milliliter and 100 µg/mL of streptomycin in a constant temperature incubator containing 5% carbon dioxide at a saturated humidity of 37° C.
(§2) Cells in the logarithmic phase of growth were taken and cultured in 96-well plates for 24 hours (5×10^3 cells/well), then treated with different concentrations of the compounds to be tested, and incubated by MTT method for 4 hours. The supernatant was removed by centrifugation, the MTT crystals were dissolved by adding DMSO, and the absorbance value was measured by an enzyme-linked immunosorbent assay at a wavelength of 570 nm. The cytotoxic activity of the compounds to be tested on cancer cells was expressed as IC50.

[2] = tested on: Vcap-CRPC; experiment: Cytotoxic activity test (MTT) on Vcap-CRPC prostate cancer cells; assay type: cell-based, human; conditions: Vcap-CRPC cells, MTT, read-out: Prostate cancer cells IC50 Vcap-CRPC
Experimental: as §1, §2

[3] = tested on: LNcap; experiment: Cytotoxic activity test (MTT) on LNcap prostate cancer cells; assay type: cell-based, human; conditions: LNcap cells, MTT, read-out: Prostate cancer cells IC50 LNcap
Experimental: as §1, §2

[4] = tested on: 22RV1; experiment: Cytotoxic activity test (MTT) on 22RV1 prostate cancer cells; assay type: cell-based, human; conditions: 22RV1 cells, MTT, read-out: Prostate cancer cells IC50 22RV1
Experimental: as §1, §2

[5] = tested on: C4-2B/ENZR; experiment: Cytotoxic activity test (MTT) on C4-2B/ENZR prostate cancer cells; assay type: cell-based, human; conditions: C4-2B/ENZR cells
Experimental: as §1, §2

[6] = tested on: C4-2B; experiment: Cytotoxic activity test (MTT) on C4-2B prostate cancer cells; assay type: cell-based, human; conditions: C4-2B cells
Experimental: as §1, §2

[7] = normal human prostate cell RWPE-1, MTT, read-out: Normal cells RWPE-1 (IC50)

In the case of `C=C(C)[C@@]12OC3(/C=C/C=C/CCCCC)O[C@@H]1[C@@H]1[C@@H]4O[C@]4(COC(C)=O)[C@@H](O)[C@]4(O)C(=O)C(C)=C[C@H]4[C@@]1(O3)[C@H](C)[C@H]2OC(C)=O` [YH-24], the IC50 [1, 7] is reported as 21900 nM, the IC50 [2] is reported as 76.2 nM and the IC50 [3] is reported as 48.2 nM. It also gave an IC50 [4] of 45.8 nM and an IC50 [5] of 67.3 nM.

Work on `C=C(C)C12OC3(c4ccccc4)OC1C1C4OC4(CO)C(O)C4(O)C(=O)C(C)CC4C1(O3)C(C)C2OC(C)=O` (stereo not shown) [YH-35] yielded an IC50 [1, 7] of 42900 nM, an IC50 [6] of 0.426 nM and an IC50 [2] of 64.2 nM. The IC50 [3] was 4.82 nM, the IC50 [4] was 144 nM and the IC50 [5] was 1.92 nM.

Work on `C=C(C)C1(O)C(O)C2C3OC3(CO)C(O)C3(O)C(=O)C(C)=CC3C2(O)C(C)C1OC(C)=O` (stereo not shown) [YH-58] yielded an IC50 [6] of 33600 nM and an IC50 [5] of 40200 nM.

`CC1=C[C@@H]2[C@@](O)(C1=O)[C@H](O)[C@@]1(CO)O[C@H]1[C@H]1[C@H]3OC4(c5ccccc5)O[C@@]3(C(C)C)[C@H](OC(=O)c3ccccc3)[C@@H](C)[C@@]12O4` [YH-40] showed an IC50 [1, 7] of 20300 nM.

`C=C(C)[C@@]12OC3(c4ccccc4)O[C@@H]1[C@@H]1[C@@H](Br)[C@@](O)(CO)[C@@H](O)[C@]4(O)C(=O)C(C)=C[C@H]4[C@@]1(O3)[C@H](C)[C@H]2OC(=O)c1ccccc1` [YH-53] was tested, and the IC50 ([1]; Homo sapiens, RWPE-1, read-out: Normal cells RWPE-1 (IC50)) was 56300 nM.

Work on `C=C(C)C12OC3(c4ccccc4)OC1C1C4OC4(CO)C(O)C4(O)C(=O)C(C)CC4C1(O3)C(C)C2OC(=O)c1ccccc1` (stereo not shown) [YH-36] yielded an IC50 [1, 7] of 14600 nM and an IC50 [4] of 42.5 nM.

For `CCCCCCCCCC12O[C@@H]3[C@@H]4[C@@H]5O[C@]5(CO)[C@@H](O)[C@]5(O)C(=O)C(C)=C[C@H]5[C@@]4(O1)[C@H](C)[C@@H](OC(C)=O)[C@]3(C(C)C)O2` [YH-37], the IC50 [1, 7] was 10300 nM.

In the case of `C=C(C)[C@@]12OC3(c4ccccc4)O[C@@H]1[C@@H]1[C@@H]4O[C@]4(COC(C)=O)[C@@H](O)[C@]4(O)C(=O)C(C)=C[C@H]4[C@@]1(O3)[C@H](C)[C@H]2OC(=O)c1ccccc1` [YH-13], the IC50 [1, 7] is reported as 35700 nM, the IC50 ([2]; Homo sapiens) is reported as 67.2 nM and the IC50 ([3]; Homo sapiens) is reported as 4.53 nM. The IC50 ([4]; Homo sapiens) was 83.2 nM and the IC50 ([5]; Homo sapiens) was 6.79 nM.

For `C=C(C)[C@@]12OC3(c4ccccc4)O[C@@H]1[C@@H]1[C@@H]4O[C@]4(CO)[C@@H](O)[C@]4(O)C(=O)C(C)=C[C@H]4[C@@]1(O3)[C@H](C)[C@H]2OC(=O)C(C)C` [YH-2], the IC50 [1, 7] was 40300 nM and the IC50 [4] was 26.5 nM.

`C=C(C)C1(O)C(O)C(C)C2(O)C(C3OC3(CO)C(O)C3(O)C(=O)C(C)=CC32)C1OC(=O)C=CC=CCCCCC` (stereo not shown) [YH-61] was tested, and the IC50 [6] was 189 nM and the IC50 [5] was 543 nM.

With `COc1cccc2c1C(=O)c1c(O)c3c(c(O)c1C2=O)C[C@@](O)(C(=O)CO)C[C@@H]3O[C@H]1C[C@H](N)[C@H](O)[C@H](C)O1` [DOX, doxorubicin, reference compound] the IC50 [1, 7] was 33.3 nM, the IC50 ([6]; Homo sapiens) was 1.04 nM and the IC50 ([2]; Homo sapiens) was 12.4 nM. The IC50 ([4]; Homo sapiens) was 5.99 nM and the IC50 ([5]; Homo sapiens) was 2.87 nM.

`CC(C)[C@@]12OC3(c4ccccc4)O[C@@H]1[C@@H]1[C@@H]4O[C@]4(CO)[C@@H](O)[C@]4(O)C(=O)[C@@H](C)C[C@H]4[C@@]1(O3)[C@H](C)[C@H]2OC(=O)c1ccccc1` [YH-39] showed an IC50 [1, 7] of 18500 nM and an IC50 ([4]; Homo sapiens) of 6.73 nM.

With `CCCCCCCCCC12O[C@@H]3[C@@H]4[C@@H]5O[C@]5(CO)[C@@H](O)[C@]5(O)C(=O)[C@@H](C)C[C@H]5[C@@]4(O1)[C@H](C)[C@@H](OC(C)=O)[C@]3(C(C)C)O2` [YH-38] the IC50 [1, 7] was 20600 nM and the IC50 ([4]; Homo sapiens) was 5.42 nM.

`C=C(C)[C@@]12OC3(c4ccccc4)O[C@@H]1[C@@H]1[C@@H]4O[C@]4(CO)[C@@H](O)[C@]4(O)C(=O)C(C)=C[C@H]4[C@@]1(O3)[C@H](C)[C@H]2OC(=O)CCC` [YH-1] showed an IC50 [1, 7] of 43500 nM and an IC50 [4] of 5.74 nM.

`C=C(C)[C@@]12OC3(c4ccccc4)O[C@@H]1[C@@H]1[C@@H]4O[C@]4(CO)[C@@H](O)[C@]4(O)C(=O)C(C)=C[C@H]4[C@@]1(O3)[C@H](C)[C@H]2OC(=O)CC` [YH-3] gave an IC50 [1, 7] of 57200 nM, an IC50 [6] of 8.95 nM and an IC50 [2] of 1.74 nM. For the same compound, the IC50 [3] was 3.77 nM and the IC50 [4] was 434 nM.
